Columns and labels:
Experiment in all cases: Induction of apoptosis by DEET
Assay type in all cases: cell-based, human
Daudi B cells = test system: Daudi B cells
U937 cells = test system: U937 cells
Jurkat T cells = test system: Jurkat T cells

Measured: Concentration inducing apoptosis

CCN(CC)C(=O)c1cccc(C)c1 [DEET, N,N-Diethyl-m-toluamide]
above 0.5 mM: all assays above

— patent publication US6455593B1, “Method of dynamic retardation of cell cycle kinetics to potentiate cell damage” (priority 1995, dated 2002)
